Columns and labels:
Type in all cases: physicochemical
[1] = Solubility measurement in t-BME; conditions: organic solvent or mixture, thermodynamic from solid; solvent addition method, 10 mg sample, up to 100 mL t-BME
Method: Solubility of Form 1 of Compound 2 was measured using the solvent addition method as described in Example 14 on 10 mg of sample. t-BME was added in 1 mL aliquots up to 10 mL, then in 5 mL and 10 mL aliquots up to a total volume of 100 mL.

[2] = Competitive slurrying of Form 1 and 2 mixtures; conditions: 50:50 Form 1 and 2 slurries in acetone, ethyl acetate, methylethyl ketone, 2-propanol; 60° C. and ambient, ca. 48 hours
Method: Four solvents (acetone, ethyl acetate, methylethyl ketone, and 2-propanol) were chosen for competitive slurrying. Saturated solutions were prepared of Form 1 in the chosen solvents and added to 20 mg of 50:50 Form 1 and 2 mixtures to create slurries. The slurries were shaken at 60° C. and ambient temperature for ca. 48 hours. Solids were then isolated by centrifuge filtration and analysed by XRPD.

7-day stability testing = assay: 7-day stability testing
Method: (§1) Form 2 of Compound 2 was scaled up in two solvents. Material underwent 7-day stability testing and/or aqueous solubility assessment. The 7-day stability testing was conducted as follows. Material was exposed to environments of 40° C./75% RH, ambient light and 80° C. for 7 days and the resulting solids analysed by XRPD to determine if any changes had occurred, and by HPLC to determine purity. The aqueous solubility assessment was conducted as follows. A slurry was created in deionised water (5.1 mg of Form 2 and 300 μL of water) and shaken for ca. 24 hours at ambient temperature (ca. 22° C.). The initial pH and final pH were measured. The resulting mixture was then isolated by centrifuge filtration, and the solution obtained analysed by HPLC to calculate the concentration of material dissolved. Remaining solid was analysed by XRPD to determine if any changes had occurred on slurrying.

[3] = Heating to 140° C., cooling and XRPD; conditions: heated to 140° C. and allowed to cool
Method: Material from Compound 2 (Form 1) was also heated to 140° C. and allowed to cool. The material was analysed by XRPD (FIG. 12), to determine any form change, which could be consistent with a solid-solid transition.

[4] = Solvent solubility screen for Compound 2; conditions: amorphous HCl salt; for solubility: 40 °C, thermodynamic from solid, read-out: Approximate Solubility
Method: Approximately 10 mg of amorphous HCl salt (from 500 mg batch) was placed in each of 28 vials and 5 volume aliquots of the appropriate solvent systems were added to the appropriate vial. Between each addition, the mixture was checked for dissolution and if no dissolution was apparent, the mixture was heated to ca. 40° C. and checked again. This procedure was continued until dissolution was observed or 100 volumes of solvent had been added. Then a further addition of 100 volumes was added to samples which had not dissolved. If 200 volumes of solvent were added without dissolution of the material, solubility was calculated to be below this point.

[5] = Dynamic vapor sorption (DVS)
Method: Approximately 10 mg of sample was placed into a mesh vapour sorption balance pan and loaded into a DVS-1 dynamic vapour sorption balance by Surface Measurement Systems. The sample was subjected to a ramping profile from 40-90% relative humidity (RH) at 10% increments, maintaining the sample at each step until a stable weight had been achieved (99.5% step completion). After completion of the sorption cycle, the sample was dried using the same procedure to 0% RH and then a second sorption cycle back to 40% RH. The weight changes during the sorption/desorption cycles were plotted, allowing for the hygroscopic nature of the sample to be determined. XRPD analysis was then carried out on any solid retained.

[6] = Aqueous solubility assessment
Method: as §1

[7] = Gravimetric vapor sorption (GVS); conditions: for weight uptake / hygroscopic nature: GVS; for weight uptake: at 90% RH; for Post-GVS analysis by XRPD (form change): after GVS sorption/desorption cycle
Method: Approximately 10 mg of sample was placed into a mesh vapour sorption balance pan and loaded into an IGASorp Moisture Sorption Analyser balance by Hiden Analytical. The sample was subjected to a ramping profile from 40-90% relative humidity (RH) at 10% increments, maintaining the sample at each step until a stable weight had been achieved (98% step completion). After completion of the sorption cycle, the sample was dried using the same procedure to 0% RH, and finally taken back to the starting point of 40% RH. The weight change during the sorption/desorption cycles were plotted, allowing for the hygroscopic nature of the sample to be determined.

[8] = listed as Form 1 of Compound 2, mono-HCl salt
[9] = listed as Form 2 (Compound 2), mono-HCl salt

Cl.O=C(OC(C(F)(F)F)C(F)(F)F)N1CCN(Cc2ccc(C(F)(F)F)cc2N2CCCC2)CC1 [Compound 2, 1,1,1,3,3,3-hexafluoropropan-2-yl 4-(2-(pyrrolidin-1-yl)-4-(trifluoromethyl)benzyl)piperazine-1-carboxylate mono-HCl salt]
solubility [1]: < 0.1 mg/mL
relative thermodynamic stability of polymorphs [2]: thermodynamically more stable than Form 1
HPLC purity after stability testing (7-day stability testing; 40° C./75% RH for 7 days): > 99.9%
solid form by XRPD after stability testing (7-day stability testing; 40° C./75% RH, ambient light and 80° C. for 7 days): remain the same form
HPLC purity after stability testing (7-day stability testing; 80° C. for 7 days): 99.9%
HPLC purity after stability testing (7-day stability testing; ambient light / ambient conditions for 7 days): > 99.9%
form change by XRPD after heating [3]: remain unchanged
solubility ([4]; aqueous with cosolvent or surfactant or cyclodextrin, 2-Propanol:water (50%), partial dissolution): < 5 mg/mL
solubility ([4]; aqueous with cosolvent or surfactant or cyclodextrin, Acetone:water (50%), partial dissolution): < 5 mg/mL
solubility ([4]; aqueous with cosolvent or surfactant or cyclodextrin, Methanol:water (50%)): < 5 mg/mL
solubility ([4]; organic solvent or mixture, 1,4-Dioxane): 5 mg/mL
solubility ([4]; organic solvent or mixture, 1-Butanol): < 5 mg/mL
solubility ([4]; organic solvent or mixture, 2-Ethoxyethanol, precipitated overnight): 49 mg/mL
solubility ([4]; organic solvent or mixture, 2-Methyl tetrahydrofuran): < 5 mg/mL
solubility ([4]; organic solvent or mixture, 2-Propanol): 5 mg/mL
solubility ([4]; organic solvent or mixture, Acetone): 40 mg/mL
solubility ([4]; organic solvent or mixture, Acetonitrile): 40 mg/mL
solubility ([4]; organic solvent or mixture, Anisole, partial dissolution): < 5 mg/mL
solubility ([4]; organic solvent or mixture, Dichloromethane, precipitated overnight): 70 mg/mL
solubility ([4]; organic solvent or mixture, Diisopropyl Ether): < 5 mg/mL
solubility ([4]; organic solvent or mixture, Dimethylacetamide): 99 mg/mL
solubility ([4]; organic solvent or mixture, Dimethylformamide): 99 mg/mL
solubility ([4]; organic solvent or mixture, Dimethylsulfoxide): 66 mg/mL
solubility ([4]; organic solvent or mixture, Ethanol): 33 mg/mL
solubility ([4]; organic solvent or mixture, Ethyl acetate): 5 mg/mL
solubility ([4]; organic solvent or mixture, Isopropyl acetate): < 5 mg/mL
solubility ([4]; organic solvent or mixture, Methanol): 101 mg/mL
solubility ([4]; organic solvent or mixture, Methyl isobutyl ketone, partial dissolution): < 5 mg/mL
solubility ([4]; organic solvent or mixture, Methylethyl ketone): 28 mg/mL
solubility ([4]; organic solvent or mixture, N-Methyl-2-pyrrolidone): 101 mg/mL
solubility ([4]; organic solvent or mixture, Tetrahydrofuran, precipitated overnight): 25 mg/mL
solubility ([4]; organic solvent or mixture, Toluene): < 5 mg/mL
solubility ([4]; organic solvent or mixture, tert-Amyl alcohol): < 5 mg/mL
solubility ([4]; organic solvent or mixture, tert-Butylmethyl ether): < 5 mg/mL
solubility ([4]; Water): < 5 mg/mL
concentration at which dissolution was initially observed ([4]; Acetone:water (50%), precipitated after ca. 2 h): 18000 µg/mL
hygroscopic nature ([5]; DVS): non-hygroscopic
total uptake ([5]; DVS, at 90% RH): < 0.12%
Post-DVS XRPD analysis (form change) ([5]; after DVS cycle): remain the same crystalline form
dissociation of the salt in water [6, 8]: dissociates readily to the free base
dissociation of the salt in water [6, 9]: dissociate to the free base
solubility at 24 h ([6]; thermodynamic from solid, slurry in deionised water, ca. 24 hours, ambient (ca. 22° C.), initial pH 1.87, final pH 1.68): 0.5 mg/mL
weight uptake [7, 8]: < 0.1%
weight uptake [7, 9]: < 0.08%
hygroscopic nature [7, 8]: very non-hygroscopic
hygroscopic nature [7, 9]: (very) non-hygroscopic
Post-GVS analysis by XRPD (form change) [7, 8]: remain unchanged
Post-GVS analysis by XRPD (form change) [7, 9]: remained the same crystalline form

— patent US11993588B2, “Crystalline forms of a MAGL inhibitor” (H. Lundbeck A/S, priority 2016, dated 2024)
